# Reference: patent US20260234144A1 (TAY THERAPEUTICS LIMITED, priority 2023, published 2026)
# Tested on: R223X stop codon in the mutated luciferase gene, ADXC8 luciferase reporter cell line
# Assay: cells
# Assay type: cell-based
# Details: ADXC8 cells, 24 hours; for Emax / EC (100% of 200 uM G418 response): 24 h; for Emax: read-out: Fold Over Control, maximum fold response relative to 200 μM G418; for EC (100% of 200 uM G418 response): read-out: pC100%, negative logarithm of the concentration giving the same response as 200 μM G418
# Procedure: The read-through activity of compounds was assessed using the ADXC8 luciferase reporter cell line (generated as described in McElroy et al. PLoS Biology (2013), 11, e1001593). […] The amount of luciferase is measured by adding a lysis buffer containing luciferin substrate and detecting luminescence using the following protocol:
# ADXC8 cells in assay media (DMEM+10% FBS) were seeded into 96-well tissue culture treated white plates (Greiner) to a density of 13,000 cells per well and incubated for 24 hours at 37° C. in an atmosphere of 5% CO2. […] Plates were incubated for a further 24 hours at 37° C. in an atmosphere of 5% CO2. Cells treated with 200 μM G418 (with 1% DMSO) were used as a positive control.
# Cell viability and firefly luciferase activity were measured in the same assay wells. CellTiter-Fluor™ reagent was prepared as per manufacturer's instructions (Promega E7120) and 20 μl of 5× CellTiter-Fluor™ reagent was added to all wells, briefly mixed by orbital shaking (300-500 rpm for −30 seconds) and the plates incubated for 30-45 minutes at 37° C. in an atmosphere of 5% C02. Cell viability was measured by monitoring fluorescence on a CLARIOstar® plate reader (BMG Labtech). Cells containing 1% DMSO were used as a positive control and cells with 400 μM Doxorubicin were used as negative control to define 100 and 0% respectively. ONE-Glo™ luciferase assay buffer (Promega E7120) was prepared according to manufacturer's instructions and 100 μl of luciferase reagent was added to each well and the plate incubated at RT for 3 mins before measuring the luminescence on the CLARIOstar® plate reader (BMG Labtech). Cells treated with 200 μM G418 (with 1% DMSO) were used as a positive control and arbitrarily assigned a value of 100%. Cells treated with 1% DMSO were used as the negative control to define 0% response.
# Concentration effect curves were analysed using non-linear regression using the CDD Vault from Collaborative Drug Discovery (Burlingame, CA). […] The bottom and top of the curves were constrained to 0 and the maximum measured response respectively. From the fitted curves, the software derived C100% values (the concentration giving the same response as 200 μM G418) for each compound. The negative logarithm of C100% is reported as pC100% (Table 1). In addition to pC100% values, the maximum fold response relative to 200 μM G418 (Fold over Control) was also captured (Table 1). A pC100% categorisation of ‘-’ in Table 1 represents examples in which a pC100% response was not reached when assayed at a concentration of 100 μM. A pC100% categorisation of ‘*’ in Table 1 represents examples in which a pC100% response was not reached when assayed at a concentration of 30 μM.
smiles,measurement,setting,value
CNc1nc(N[C@@H]2CNC[C@@H]2O)nc2nc3c(c(C)c12)CCC3 [Example 657],Emax,,100 to 3000%
same,EC (100% of 200 uM G418 response),,1 to 10 µM
"CNc1nc(N[C@H]2CN(C)C[C@@H]2OC(=O)OC(C)(C)C)nc2nc3c(c(C)c12)CCC3 [Example 685, tert-butyl ((3S,4S)-1-methyl-4-((5-methyl-4-(methylamino)-7,8-dihydro-6H-cyclopenta[5,6]pyrido[2,3-d]pyrimidin-2-yl)amino)pyrrolidin-3-yl) carbonate]",Emax,,100 to 3000%
same,EC (100% of 200 uM G418 response),,0.1 to 1 µM
CNc1nc(N[C@@H]2CN[C@@H](C)C2)nc2nc(C)cc(C)c12 [Example 374],Emax,,100 to 3000%
same,EC (100% of 200 uM G418 response),,10 to 100 µM
Cc1cc(C)c2c(N)nc(NCCN3CCOCC3)nc2n1 [Example 173],Emax,,0 to 100%
same,EC (100% of 200 uM G418 response),,> 31.6 µM
Cc1cc(C)c2c(N)nc(N[C@H]3CCCCNC3)nc2n1 [Example 312],Emax,,100 to 3000%
same,EC (100% of 200 uM G418 response),,10 to 100 µM
COc1ccccc1-c1ccc2c(N)nc(NC3CCN(C)CC3)nc2n1 [Example 50],EC (100% of 200 uM G418 response),,1 to 10 µM
"CC(C)Oc1ccc2c(N)nc(NC3CCN(C)CC3)nc2n1 [Example 38, 7-isopropoxy-N^2-(1-methylpiperidin-4-yl)pyrido[2,3-d]pyrimidine-2,4-diamine]",Emax,,0 to 100%
same,EC (100% of 200 uM G418 response),,> 100 µM
CNc1nc(N[C@H]2CN(C)C[C@H]2F)nc2nc(C)c(Br)c(C)c12 [Example 613],EC (100% of 200 uM G418 response),,1 to 10 µM
"CNc1ccc2c(N)nc(NC3CCN(C)CC3)nc2n1 [Example 34, N^7-methyl-N2-(1-methylpiperidin-4-yl)pyrido[2,3-d]pyrimidine-2,4,7-triamine]",Emax,,100 to 3000%
same,EC (100% of 200 uM G418 response),,10 to 100 µM
Cc1cc(C)c2c(N)nc(NC3CC(C)(C)N(C)C(C)(C)C3)nc2n1 [Example 171],Emax,,100 to 3000%
same,EC (100% of 200 uM G418 response),,10 to 100 µM
CN1CCC(Nc2nc(N)c3cc(C(=O)O)cnc3n2)CC1 [Example 287],Emax,,0 to 100%
same,EC (100% of 200 uM G418 response),,> 100 µM
CNc1nc(N[C@@H]2CCNC2)nc2nc(C)cc(C)c12 [Example 294],EC (100% of 200 uM G418 response),,0.1 to 1 µM
"Cc1cnc2nc(NC3CCN(C)CC3)nc(N)c2c1 [Example 4, 6-methyl-N^2-(1-methylpiperidin-4-yl)pyrido[2,3-d]pyrimidine-2,4-diamine]",Emax,,100 to 3000%
same,EC (100% of 200 uM G418 response),,10 to 100 µM
Cc1cc(C)c2c(NCC(F)F)nc(N[C@@H]3CCN(C)C3)nc2n1 [Example 636],EC (100% of 200 uM G418 response),,1 to 10 µM
CNC(=O)c1cccc(-c2ccc3c(N)nc(NC4CCN(C)CC4)nc3n2)c1 [Example 80],Emax,,100 to 3000%
same,EC (100% of 200 uM G418 response),,10 to 100 µM
CNc1nc(NCC23CCCN2CCC3)nc2nc(C)cc(C)c12 [Example 600],Emax,,0 to 100%
same,EC (100% of 200 uM G418 response),,> 31.6 µM
"C=C(C)c1ccnc2nc(NC3CCN(C)CC3)nc(N)c12 [Example 245, N^2-(1-methylpiperidin-4-yl)-5-(prop-1-en-2-yl)pyrido[2,3-d]pyrimidine-2,4-diamine]",Emax,,0 to 100%
same,EC (100% of 200 uM G418 response),,> 100 µM
CNc1c(C)c(N[C@@H]2CCN(C)C2)nc2nc(C)cc(C)c12 [Example 620],Emax,,0 to 100%
same,EC (100% of 200 uM G418 response),,> 31.6 µM
"CNc1nc(N[C@H]2CN(C)C[C@@H]2O)nc2nc(C)c(C)c(C)c12 [Example 520, (3S,4S)-1-methyl-4-((5,6,7-trimethyl-4-(methylamino)pyrido[2,3-d]pyrimidin-2-yl)amino)pyrrolidin-3-ol]",Emax,,100 to 3000%
same,EC (100% of 200 uM G418 response),,0.1 to 1 µM
Cc1cc(C)c2c(N)nc(NC3CCNC[C@@H]3F)nc2n1 (stereo partly drawn) [Example 206],Emax,,100 to 3000%
same,EC (100% of 200 uM G418 response),,1 to 10 µM
Cc1c2c(nc3nc(NC4CCN(Cc5ccc(C#N)cc5F)CC4)nc(N)c13)CCC2 [Example 649],Emax,,100 to 3000%
same,EC (100% of 200 uM G418 response),,1 to 10 µM
Cc1cc(C)c2c(N)nc(NCCCN3CCC4(CCOCC4)C3)nc2n1 [Example 189],Emax,,0 to 100%
same,EC (100% of 200 uM G418 response),,> 31.6 µM
CNc1nc(N[C@@H]2CCCN(C)CC2)nc2nc(C)cc(C)c12 [Example 401],Emax,,100 to 3000%
same,EC (100% of 200 uM G418 response),,1 to 10 µM
"Cc1cc(C)c2c(N)cc(NCCCCN(C)C)nc2n1 [Example 254, N^2-(4-(dimethylamino)butyl)-5,7-dimethyl-1,8-naphthyridine-2,4-diamine]",Emax,,100 to 3000%
same,EC (100% of 200 uM G418 response),,10 to 100 µM
COCc1ccccc1CN1CCC(Nc2nc(N)c3c(C)cc(C)nc3n2)CC1 [Example 455],Emax,,100 to 3000%
same,EC (100% of 200 uM G418 response),,1 to 10 µM
Cc1cc(C)c2c(N)nc(NC3CCN(Cc4ccns4)CC3)nc2n1 [Example 467],Emax,,100 to 3000%
same,EC (100% of 200 uM G418 response),,1 to 10 µM
"Cc1cc(C)c2c(N)cc(N[C@@H]3CCNC3)nc2n1 [Example 255, (R)-5,7-dimethyl-N^2-(pyrrolidin-3-yl)-1,8-naphthyridine-2,4-diamine]",EC (100% of 200 uM G418 response),,0.1 to 1 µM
CNc1nc(N[C@H]2C3CC[C@@H]2NC3)nc2nc(C)cc(C)c12 [Example 444],Emax,,100 to 3000%
same,EC (100% of 200 uM G418 response),,10 to 100 µM
"CN1CCC(Nc2nc(N)c3c(n2)nc(-c2ccccc2)c2ccccc23)CC1 [Example 31, N^3-(1-methylpiperidin-4-yl)-6-phenylpyrimido[4,5-c]isoquinoline-1,3-diamine]",Emax,,100 to 3000%
same,EC (100% of 200 uM G418 response),,1 to 10 µM
Cc1c2c(nc3nc(NC4CCN(Cc5ccccc5O)CC4)cc(N)c13)CCC2 [Example 680],Emax,,100 to 3000%
same,EC (100% of 200 uM G418 response),,0.01 to 0.1 µM
Cc1cc(C)c2c(N)nc(NCC(C)(C)CN(C)C)nc2n1 [Example 149],Emax,,0 to 100%
same,EC (100% of 200 uM G418 response),,> 31.6 µM
CNc1nc(N[C@@H]2CCN(C)C2)nc2nc3c(c(C)c12)CCC3 [Example 336],Emax,,100 to 3000%
same,EC (100% of 200 uM G418 response),,0.1 to 1 µM
CN1CCC(Nc2nc(N)c3ccc(C#N)nc3n2)CC1 [Example 282],Emax,,0 to 100%
same,EC (100% of 200 uM G418 response),,> 31.6 µM
CN1CCC(Nc2nc(N)c3cc(-c4ccn(C)n4)cnc3n2)CC1 [Example 648],Emax,,0 to 100%
same,EC (100% of 200 uM G418 response),,> 100 µM
"CNc1nc(NC2C3CNC2C3)nc2nc(C)cc(C)c12 (single isomer, unassigned) [Example 447]",Fold Over Control,maximum fold response relative to 200 μM G418,## (Fold over Ctrl > 1 ≤ 30)
same,pC100%,negative logarithm of the concentration giving the same response as 200 μM G418,++ (pC100% > 5.0 ≤ 6.0)
CCN1C[C@H](Nc2nc(NC)c3c(C)cc(C)nc3n2)[C@@H](O)C1 [Example 626],Emax,,100 to 3000%
same,EC (100% of 200 uM G418 response),,1 to 10 µM
CC(C)c1cnc2nc(NC3CCN(C)CC3)nc(N)c2c1 [Example 276],Emax,,100 to 3000%
same,EC (100% of 200 uM G418 response),,10 to 100 µM
Cc1cc(C)c2c(N)nc(NC[C@H]3CNCCO3)nc2n1 [Example 161],Emax,,100 to 3000%
same,EC (100% of 200 uM G418 response),,10 to 100 µM
Cc1cc(C)c2c(N)nc(NCC(O)CN3CCCCC3)nc2n1 (stereo not drawn) [Example 642],Emax,,100 to 3000%
same,EC (100% of 200 uM G418 response),,10 to 100 µM
CC(CO)c1cnc2nc(NC3CCN(C)CC3)nc(N)c2c1 (stereo not drawn) [Example 286],Emax,,0 to 100%
same,EC (100% of 200 uM G418 response),,> 100 µM
Cc1cc(C2CC2)nc2nc(NC3CCN(C)CC3)nc(N)c12 [Example 601],EC (100% of 200 uM G418 response),,1 to 10 µM
"CNc1nc(N[C@H]2CN(C)C[C@@H]2OC(=O)C(C)C)nc2nc3c(c(C)c12)CCC3 [Example 684, (3S,4S)-1-methyl-4-((5-methyl-4-(methylamino)-7,8-dihydro-6H-cyclopenta[5,6]pyrido[2,3-d]pyrimidin-2-yl)amino)pyrrolidin-3-yl isobutyrate]",Emax,,100 to 3000%
same,EC (100% of 200 uM G418 response),,0.1 to 1 µM
Cc1cc(C)c2c(N)nc(NC3CCN(Cc4ccncc4Br)CC3)nc2n1 [Example 559],Emax,,100 to 3000%
same,EC (100% of 200 uM G418 response),,1 to 10 µM
Cc1cc(C)c2c(N)nc(NC3CCN(Cc4ccccc4C(F)F)CC3)nc2n1 [Example 493],Emax,,100 to 3000%
same,EC (100% of 200 uM G418 response),,1 to 10 µM
Cc1cc(C)c2c(N)nc(NC3CCN(Cc4ccccc4)CC3(F)F)nc2n1 (stereo not drawn) [Example 639],Emax,,0 to 100%
same,EC (100% of 200 uM G418 response),,> 31.6 µM
CNc1nc(N[C@H]2CN[C@H](CO)C2)nc2nc(C)cc(C)c12 [Example 415],EC (100% of 200 uM G418 response),,1 to 10 µM
Cc1cc(C)c2c(N)nc(N[C@H]3CCNC[C@@H]3C)nc2n1 [Example 641],Emax,,100 to 3000%
same,EC (100% of 200 uM G418 response),,10 to 100 µM
